Measured values taken from patent US20110039784A1, “COMPOSITION FOR TREATMENT OF ERECTILE DYSFUNCTION” (SUNGKYUNKWAN UNIVERSITY Foundation for Corporate …, priority 2009, published 2011).
Residue numbers refer to the chain shown, from its start. Ends that are not written are not given here.

Legend:
TRPC6 ion channel [1] = biological target: T1, TRPC6 ion channel (Mus musculus, UniProt Q61143); assay: Whole-cell patch clamp in HEK 293 cells transfected with wild-type TRPC6; type: cell-based; conditions: for whole-cell current at −100 mV: TRPC6-transfected HEK cells, n=5; for change of whole-cell current on application: membrane potential held at −60 mV, symmetrical 140 mM Cs, 200 μM PE or 100 μM CCh
T1 construct: expressed in transfected cells; host or cells: HEK 293
T1 sequence (Q61143 1-930): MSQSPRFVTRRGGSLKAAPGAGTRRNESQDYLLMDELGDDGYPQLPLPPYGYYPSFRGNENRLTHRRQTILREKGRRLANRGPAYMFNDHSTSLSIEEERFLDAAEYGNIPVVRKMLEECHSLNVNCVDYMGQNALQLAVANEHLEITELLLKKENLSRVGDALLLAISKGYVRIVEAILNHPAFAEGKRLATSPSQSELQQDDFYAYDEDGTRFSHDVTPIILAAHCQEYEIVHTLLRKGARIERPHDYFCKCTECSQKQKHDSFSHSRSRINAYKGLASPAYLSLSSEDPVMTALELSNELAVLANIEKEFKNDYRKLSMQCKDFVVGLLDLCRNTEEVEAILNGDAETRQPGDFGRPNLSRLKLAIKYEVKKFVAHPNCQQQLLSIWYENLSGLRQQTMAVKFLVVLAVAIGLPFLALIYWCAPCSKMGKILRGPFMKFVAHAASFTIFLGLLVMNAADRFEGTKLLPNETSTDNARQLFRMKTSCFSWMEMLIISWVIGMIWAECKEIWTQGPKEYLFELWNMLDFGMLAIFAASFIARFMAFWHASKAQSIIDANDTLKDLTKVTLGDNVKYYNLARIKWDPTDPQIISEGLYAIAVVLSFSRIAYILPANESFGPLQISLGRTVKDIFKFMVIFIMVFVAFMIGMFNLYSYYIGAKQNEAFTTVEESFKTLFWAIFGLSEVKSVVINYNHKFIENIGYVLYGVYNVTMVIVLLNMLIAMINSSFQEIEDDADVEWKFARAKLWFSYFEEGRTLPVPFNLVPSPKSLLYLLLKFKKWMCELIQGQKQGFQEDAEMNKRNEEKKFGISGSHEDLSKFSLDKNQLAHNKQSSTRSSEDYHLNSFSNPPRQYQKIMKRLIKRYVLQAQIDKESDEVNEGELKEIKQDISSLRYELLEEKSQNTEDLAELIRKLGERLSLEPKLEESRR
Method: The physiological function of the TRPC6 ion channel was examined in HEK cells which are free of ion channels. In this regard, GFP-TRPC6 pcDNA was transfected into HEK cells using a liposome and expressed therein. After the membrane potential was held at −60 mV, whole-cell currents were recorded in symmetrical 140 mM Cs conditions. […] At −100 mV, the current was −112.0±18.1 pA (n=5) in a 140 mM extracellular Cs condition, −90.0±15.0 pA (n=5) after adding 200 μM PE, and −460±169.5 pA (n=5) after adding 100 μM CCh. […] The PE/CCh-induced current was obtained after leak subtraction was performed (FIG. 3C).

maxi-K ion channel [2] = assay: Whole-cell patch clamp in human corporal smooth muscle cells expressing rslo gene; type: cell-based, rat; conditions: rslo-expressed human corporal smooth muscle cells
Excerpt: As described with HEK cells, the rslo pcDNA was expressed. The ion channels were examined for activity using a whole-cell patch clamp technique. Under the condition of a pipette solution having a calcium concentration of pCa 6.5, the current was 60.1±7.2 pA/pF (n=22) at a membrane potential of +60 mV in the rslo-expressed cells, which increased in outward current four-fold compared to that of control (16.4±2 pA/pF n=9) (FIG. 9A). Under the condition of an intracellular calcium concentration of pCa 7, the current was 12.8±2 pA/pF (+60 mV, n=9) in the control and 38.1±7 pA/pF (+60 mV, n=13) in the rslo-expressed cells (FIG. 9B). […] The current-voltage (I-V) relationship was similar to that recorded in the HEK cells.

maxi-K ion channel [3] = biological target: T2, maxi-K ion channel (Rattus norvegicus, UniProt Q62976); assay: Whole-cell patch clamp in HEK 293 cells expressing rslo gene; type: cell-based; conditions: rslo-expressed HEK cells
T2 construct: GFP; expressed in transfected cells; host or cells: HEK 293
T2 sequence (Q62976 whole entry): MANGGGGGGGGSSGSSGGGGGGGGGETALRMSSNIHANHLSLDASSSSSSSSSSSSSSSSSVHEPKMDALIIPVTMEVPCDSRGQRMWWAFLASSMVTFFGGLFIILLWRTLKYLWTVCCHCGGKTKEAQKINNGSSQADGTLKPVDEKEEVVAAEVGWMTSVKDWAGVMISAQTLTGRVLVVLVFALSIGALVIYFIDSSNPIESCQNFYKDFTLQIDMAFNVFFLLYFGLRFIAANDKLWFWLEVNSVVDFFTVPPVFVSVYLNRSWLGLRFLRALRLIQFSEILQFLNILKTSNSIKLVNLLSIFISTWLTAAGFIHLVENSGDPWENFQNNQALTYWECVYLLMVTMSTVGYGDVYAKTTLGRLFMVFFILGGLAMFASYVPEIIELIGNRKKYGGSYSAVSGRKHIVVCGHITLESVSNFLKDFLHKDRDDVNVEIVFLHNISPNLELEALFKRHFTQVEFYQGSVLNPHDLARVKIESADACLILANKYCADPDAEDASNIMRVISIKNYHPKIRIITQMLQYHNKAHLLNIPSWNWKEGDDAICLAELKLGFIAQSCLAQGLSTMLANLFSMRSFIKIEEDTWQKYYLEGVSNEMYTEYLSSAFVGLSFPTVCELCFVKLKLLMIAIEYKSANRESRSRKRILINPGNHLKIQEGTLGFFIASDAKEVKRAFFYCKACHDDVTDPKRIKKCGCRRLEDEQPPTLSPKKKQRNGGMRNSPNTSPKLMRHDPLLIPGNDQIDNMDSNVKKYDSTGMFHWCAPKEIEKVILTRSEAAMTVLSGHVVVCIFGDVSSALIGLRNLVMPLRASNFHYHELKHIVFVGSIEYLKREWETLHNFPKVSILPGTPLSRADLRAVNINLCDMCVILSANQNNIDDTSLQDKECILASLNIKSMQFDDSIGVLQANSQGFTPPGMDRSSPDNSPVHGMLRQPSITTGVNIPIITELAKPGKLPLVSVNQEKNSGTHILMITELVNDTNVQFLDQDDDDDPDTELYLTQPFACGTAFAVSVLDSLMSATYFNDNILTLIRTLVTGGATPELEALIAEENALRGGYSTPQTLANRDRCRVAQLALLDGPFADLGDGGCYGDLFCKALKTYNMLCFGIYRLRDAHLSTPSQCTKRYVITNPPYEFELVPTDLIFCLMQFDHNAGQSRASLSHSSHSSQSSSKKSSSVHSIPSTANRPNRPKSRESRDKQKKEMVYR
Excerpt: The maxi-K ion channel is known to play an important role in reducing the contraction of smooth muscle responsible for the modulation of penile erection and relaxation. Together with GFP, the α-subunit (rSlo) coding sequence of calcium-dependent potassium ion channel cloned from the rat brain was subcloned into pcDNA3.1(+). After the expression of rSlo gene in HEK cells, green-fluorescent cells were selected under a mercury lamp light and observed for the electrophysiological properties of the ion channels using a whole-cell patch clamp technique. Cells were used within 24˜48 hrs after expression. […] At an intracellular calcium level of pCa 7, the current was read 10.4±3.2 pA/pF (+60 mV, n=6) in the control and 100.5±15.4 pA/pF (n=6) in the rslo-expressed cells (FIG. 8B).

TRPC6 ion channel [4] = biological target: T3, TRPC6 ion channel (Mus musculus, UniProt Q61143); assay: Whole-cell patch clamp in human corporal smooth muscle cells transfected with wild-type or dominant negative TRPC6; type: cell-based; conditions: after ET-1, 1 mM La^3+
T3 construct: expressed in transfected cells; host or cells: human corporal smooth muscle cells
T3 sequence (Q61143 1-930 A105V/R114W/A184S/Y371D/R436P/G437R/T905S): T1 sequence (Q61143 1-930) with A105V, R114W, A184S, Y371D, R436P, G437R, T905S
Method: As described with HEK cells, the wild-type TRPC6 cDNA was expressed. After being selected, green-fluorescent cells were examined for the activity of the ion channel using a whole-cell patch clamp technique. At the −60 mV holding membrane potential with the external solution changed from Na-rich normal tyrode solution to 140 mM Cs, the inward current was increased; whereas no currents changed upon external treatment with ET-1, a typical inducer of smooth muscle contraction. At −100 mV, the current was −535.9±162.4 pA (n=5) in 140 mM extracellular Cs, and −462.1±150.5 pA (n=5) after adding 100 nM ET-1. The current-voltage (I-V) relationship of corporal smooth muscle cells was similar to that of HEK cells activated by CCh. […] (FIG. 4)
For genetic regulation of the TRPC6 ion channel in corporal smooth muscle cells, the cells transfected with the dominant negative form of the TRPC6 ion channel were examined for electrophysiological function.

[5] = tested on: corporal smooth muscle cells; assay: Fura-2 intracellular calcium level in cultured corporal smooth muscle cells, ET-1 induced; type: cell-based, human; conditions: control corporal smooth muscle cells, n=3
Method: After fura-2 was loaded thereto, cultured corporal smooth muscle cells were measured for intracellular calcium levels. The extracellular addition of 50 nM endothelin-1 induced an increase in intracellular calcium level, with the separation of an initial increasing phase and a late constant phase (FIG. 7A).
Between the TRPC6 cDNA-transfected cells and the control cells, there are little differences in the initial phase. […] Intracellular calcium levels were also measured in the corporal smooth muscle cells where the dominant negative form of TRPC6 was expressed. […] Collectively, F340/380, accounting for ET-1-induced calcium increase, was measured to be 1.47±0.03 (n=3) in corporal smooth muscle cells (control), 1.53±0.09 (n=3) in corporal smooth muscle cells where TRPC6 was overexpressed, and 0±0 (n=3) in corporal smooth muscle cells where the dominant negative form of TRPC6 was expressed (FIG. 7D).

CNC[C@H](O)c1cccc(O)c1 [PE, phenylephrine]
whole-cell current at −100 mV (TRPC6 ion channel [1]; after adding 200 μM PE): −90.0±15.0 pA
change of whole-cell current on application (TRPC6 ion channel [1]): nearly no currents changed

C[N+](C)(C)CCOC(N)=O [CCh, carbachol]
whole-cell current at −100 mV (TRPC6 ion channel [1]; after adding 100 μM CCh): −460±169.5 pA
change of whole-cell current on application (TRPC6 ion channel [1]): increased inward currents

CC[N+](CC)(CC)CC [TEA]
effect on outward current (maxi-K ion channel [2]): decreased in a dose-dependent manner
effect on outward current (maxi-K ion channel [3]): decreased in a dose-dependent manner

[La+3] [La^3+]
effect on current (TRPC6 ion channel [4]): completely decreased

endothelin-1 (CSCSSLMDKECVYFCHLDIIW; ends and bridges not checked; cysteine pairing not given here; UniProt P05305 53-73, looked up) [ET-1, a typical inducer of smooth muscle contraction]
F340/380, accounting for ET-1-induced calcium increase [5]: 1.47±0.03
